Read-outs that look alike come from different tables or passages of the source.
Key:
JAK2 = JAK2 (Homo sapiens (Human), UniProt O60674); experiment: Biochemical kinase assay (33P-ATP filter-binding), JAK2; conditions: read-out: IC50 JAK2
Text: (§1) Biochemical Kinase Assay Protocol (JAK)
(§2) Reaction Procedure: • 1. […] Detected kinase activity by filter-binding method.

JAK1 = JAK1 (Homo sapiens (Human), UniProt P23458); experiment: Biochemical kinase assay (33P-ATP filter-binding), JAK1; conditions: read-out: IC50 JAK1
Text: as §1, §2

Sequence of JAK1 (P23458 whole entry, species assumed): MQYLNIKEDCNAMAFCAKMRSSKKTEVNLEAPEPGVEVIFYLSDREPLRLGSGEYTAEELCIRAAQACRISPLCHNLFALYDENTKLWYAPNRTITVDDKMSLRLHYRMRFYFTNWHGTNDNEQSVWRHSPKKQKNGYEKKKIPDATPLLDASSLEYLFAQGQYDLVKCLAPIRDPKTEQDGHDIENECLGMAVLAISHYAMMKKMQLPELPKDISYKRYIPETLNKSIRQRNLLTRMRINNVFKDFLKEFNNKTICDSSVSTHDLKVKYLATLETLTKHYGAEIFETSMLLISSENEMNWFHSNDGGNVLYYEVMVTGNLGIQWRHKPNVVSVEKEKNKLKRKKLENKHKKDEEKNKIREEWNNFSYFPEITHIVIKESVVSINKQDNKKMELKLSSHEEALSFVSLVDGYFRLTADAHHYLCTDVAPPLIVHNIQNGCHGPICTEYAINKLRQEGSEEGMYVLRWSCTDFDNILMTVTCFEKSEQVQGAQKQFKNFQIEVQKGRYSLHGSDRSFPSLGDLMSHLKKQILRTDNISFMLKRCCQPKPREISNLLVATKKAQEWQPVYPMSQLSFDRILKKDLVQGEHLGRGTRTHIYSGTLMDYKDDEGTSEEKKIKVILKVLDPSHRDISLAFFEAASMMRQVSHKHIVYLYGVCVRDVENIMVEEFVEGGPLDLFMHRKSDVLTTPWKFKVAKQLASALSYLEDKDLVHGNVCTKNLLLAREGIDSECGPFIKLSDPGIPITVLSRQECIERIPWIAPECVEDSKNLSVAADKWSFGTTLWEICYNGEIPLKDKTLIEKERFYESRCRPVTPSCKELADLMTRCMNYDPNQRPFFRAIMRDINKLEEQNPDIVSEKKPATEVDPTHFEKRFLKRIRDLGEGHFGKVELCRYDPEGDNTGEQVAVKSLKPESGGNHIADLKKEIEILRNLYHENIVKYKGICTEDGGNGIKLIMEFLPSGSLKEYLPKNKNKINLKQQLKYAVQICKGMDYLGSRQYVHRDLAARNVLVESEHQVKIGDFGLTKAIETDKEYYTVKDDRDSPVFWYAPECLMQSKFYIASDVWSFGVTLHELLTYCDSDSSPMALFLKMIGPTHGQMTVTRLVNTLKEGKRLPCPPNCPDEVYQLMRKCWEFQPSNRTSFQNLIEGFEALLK
Sequence of JAK2 (O60674 whole entry, species assumed): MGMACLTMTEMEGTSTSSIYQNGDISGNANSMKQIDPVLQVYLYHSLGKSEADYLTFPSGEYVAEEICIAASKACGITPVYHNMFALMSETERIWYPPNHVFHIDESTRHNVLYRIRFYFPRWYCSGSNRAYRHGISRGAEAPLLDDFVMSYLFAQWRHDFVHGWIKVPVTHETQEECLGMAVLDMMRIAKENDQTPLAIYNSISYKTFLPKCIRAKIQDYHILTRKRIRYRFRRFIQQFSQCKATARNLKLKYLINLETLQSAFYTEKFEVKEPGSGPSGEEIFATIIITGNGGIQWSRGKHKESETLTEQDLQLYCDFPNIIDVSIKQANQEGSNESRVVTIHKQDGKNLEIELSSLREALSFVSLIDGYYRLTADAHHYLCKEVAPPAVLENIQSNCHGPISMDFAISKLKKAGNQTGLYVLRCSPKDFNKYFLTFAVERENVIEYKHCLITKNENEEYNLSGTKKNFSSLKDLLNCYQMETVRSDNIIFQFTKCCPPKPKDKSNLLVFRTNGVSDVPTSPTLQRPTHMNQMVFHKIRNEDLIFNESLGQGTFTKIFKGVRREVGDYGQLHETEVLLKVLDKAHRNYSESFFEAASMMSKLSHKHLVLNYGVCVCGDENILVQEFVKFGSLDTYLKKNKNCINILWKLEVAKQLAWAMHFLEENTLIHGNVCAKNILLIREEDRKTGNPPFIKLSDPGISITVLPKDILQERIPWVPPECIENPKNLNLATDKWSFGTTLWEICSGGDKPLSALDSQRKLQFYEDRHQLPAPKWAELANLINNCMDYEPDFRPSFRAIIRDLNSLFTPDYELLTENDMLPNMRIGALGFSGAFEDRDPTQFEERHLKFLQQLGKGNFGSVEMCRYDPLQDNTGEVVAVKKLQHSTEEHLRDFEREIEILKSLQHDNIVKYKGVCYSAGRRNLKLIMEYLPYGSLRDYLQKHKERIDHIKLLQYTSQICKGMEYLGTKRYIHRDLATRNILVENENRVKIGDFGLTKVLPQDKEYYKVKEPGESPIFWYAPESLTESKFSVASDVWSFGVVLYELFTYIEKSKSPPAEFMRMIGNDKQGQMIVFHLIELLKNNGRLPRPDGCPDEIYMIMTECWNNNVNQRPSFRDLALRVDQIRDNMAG

| Compound | IC50 (JAK2; Table 3a) [nM] | IC50 (JAK1; Table 3a) [nM] | IC50 (JAK2; Table 3b, comparator compounds) [nM] | IC50 (JAK1; Table 3b, comparator compounds) [nM] |
| --- | --- | --- | --- | --- |
| Cc1cnc(Nc2cc3c4c(c2)OCCOB4OC3)nc1N[C@@H]1CCC[C@H]1C#N (relative stereo) [Example 004, (trans)-2-((2-((7,8-dihydro-2H-1,6,9-trioxa-9a-borabenzo [cd]azulen-4-yl)amino)-5-methylpyrimidin-4-yl)amino)cyclopentane-1-carbonitrile] | 49.7 | 1.6 | – | – |
| Cc1cnc(Nc2ccc3c(c2)C=CB(O)O3)nc1N[C@@H]1CCC[C@H]1C#N (relative stereo) [Example 007, (trans)-2-((2-((2-hydroxy-2H-benzo[e][1,2]oxaborinin-6-yl)amino)-5-methylpyrimidin-4-yl)amino)cyclopentane-1-carbonitrile] | 52.6 | 5.3 | – | – |
| Cc1cnc(Nc2ccc3c(c2)C=CB(O)O3)nc1N[C@@H]1CCCC[C@H]1C#N (relative stereo) [Example 015, (trans)-2-[[2-[(2-hydroxy-1,2-benzoxaborinin-6-yl)amino]-5-methyl-pyrimidin-4-yl]amino]cyclohexanecarbonitrile] | 103 | 9 | – | – |
| N#C[C@@H]1CCCC[C@H]1Nc1nc(Nc2cc(Cl)c3c(c2)COB3O)ncc1Cl (relative stereo) [Example 019, (trans)-2-((5-chloro-2-((7-chloro-1-hydroxy-1,3-dihydrobenzo[c][1,2]oxaborol-5-yl)amino)pyrimidin-4-yl)amino)cyclohexane-1-carbonitrile] | 3.2 | 0.2 | – | – |
| N#C[C@@H]1CCCC[C@H]1Nc1nc(Nc2cc(Cl)c3c(c2)COB3O)ncc1F (relative stereo) [Example 020, (trans)-2-[[2-[(7-chloro-1-hydroxy-3H-2,1-benzoxaborol-5-yl)amino]-5 fluoropyrimidin-4-yl]amino]cyclohexanecarbonitrile] | 50.7 | 1.4 | – | – |
| N#C[C@@H]1CCCC[C@H]1Nc1nc(Nc2cc(Cl)c3c(c2)COB3O)ncc1C(F)(F)F (relative stereo) [Example 021, (trans)-2-((2-((7-chloro-1-hydroxy-1,3-dihydrobenzo[c][1,2]oxaborol-5-yl)amino)-5-(trifluoromethyl)pyrimidin-4-yl)amino)cyclohexanecarbonitrile] | 3.2 | 2.7 | – | – |
| N#C[C@@H]1CCC[C@H]1Nc1nc(Nc2cc(Cl)c3c(c2)COB3O)ncc1C(F)(F)F (relative stereo) [Example 022, (trans)-2-[[2-[(7-chloro-1-hydroxy-3H-2,1-benzoxaborol-5-yl)amino]-5-(trifluoromethyl)pyrimidin-4-yl]amino]cyclopentanecarbonitrile] | 7.5 | 3.3 | – | – |
| N#C[C@@H]1CCCC[C@H]1Nc1nc(Nc2cc(F)c3c(c2)COB3O)ncc1Cl (relative stereo) [Example 023, (trans)-2-((5-chloro-2-((7 fluoro-1-hydroxy-1,3-dihydrobenzo[c][1,2]oxaborol-5-yl)amino)pyrimidin-4-yl)amino)cyclohexane-1-carbonitrile] | 0.6 | 0.2 | – | – |
| Cc1cnc(Nc2cc(C#N)c3c(c2)COB3O)nc1N[C@@H]1COCC[C@H]1C#N (relative stereo) [Example 045, 5-((4-(((trans)-4-cyanotetrahydro-2H-pyran-3-yl)amino)-5-methylpyrimidin-2-yl)amino)-1-hydroxy-1,3-dihydrobenzo[c][1,2]oxaborole-7-carbonitrile] | 10.6 | 0.5 | – | – |
| N#C[C@@H]1CCOC[C@H]1Nc1nc(Nc2cc(Cl)c3c(c2)COB3O)ncc1F (relative stereo) [Example 046, (trans)-3-((2-((7-chloro-1-hydroxy-1,3-dihydrobenzo[c][1,2]oxaborol-5-yl)amino)-5-fluoropyrimidin-4-yl)amino) tetrahydro-2H-pyran-4-carbonitrile] | 186 | 3.4 | – | – |
| N#C[C@@H]1CCOC[C@H]1Nc1nc(Nc2ccc3c(c2)COB3O)ncc1Cl (relative stereo) [Example 047, (trans)-3-((5-chloro-2-((1-hydroxy-1,3-dihydrobenzo[c][1,2]oxaborol-5-yl)amino)pyrimidin-4-yl)amino)tetrahydro-2H-pyran-4-carbonitrile] | 7.6 | 0.34 | – | – |
| N#C[C@@H]1CCOC[C@H]1Nc1nc(Nc2cc(Cl)c3c(c2)COB3O)ncc1Cl (relative stereo) [Example 048, (trans)-3-[[5-chloro-2-[(7-chloro-1-hydroxy-3H-2,1-benzoxaborol-5-yl)amino]pyrimidin-4-yl]amino]tetrahydropyran-4-carbonitrile] | 15.6 | 0.6 | – | – |
| Cc1cnc(Nc2cc(Cl)c3c(c2)COB3O)nc1N[C@H]1CCCC[C@@H]1C#N (single isomer, unassigned) [Example 010b, (trans)-2-[[2-[(7-chloro-1-hydroxy-3H-2,1-benzoxaborol-5-yl)amino]-5-methyl-pyrimidin-4-yl]amino]cyclohexanecarbonitrile] | 811 | 22.3 | – | – |
| Cc1cnc(Nc2cc3c4c(c2)OCCOB4OC3)nc1NC1CCCCC1C#N (stereo not drawn) [Example 013, (trans)-2-((2-((7,8-dihydro-2H-1,6,9-trioxa-9a-borabenzo[c,d]azulen-4-yl)amino)-5-methylpyrimidin-4-yl)amino)cyclohexane-1-carbonitrile] | 101 | 2.6 | – | – |
| Cc1cc(Nc2ncc(Cl)c(NC3CCCCC3C#N)n2)cc2c1B(O)OC2 (stereo not shown) [Example 024, 2-[[5-chloro-2-[(1-hydroxy-7-methyl-3H-2,1-benzoxaborol-5-yl)amino]pyrimidin-4-yl]amino]cyclohexanecarbonitrile] | 11.2 | 5.9 | – | – |
| Cc1cnc(Nc2ccc3c(c2)C(C)OB3O)nc1NC1COCCC1C#N (stereo not drawn) [Example 028, (trans)-3-[[2-[(1-hydroxy-3-methyl-3H-2,1-benzoxaborol-5-yl)amino]-5-methyl-pyrimidin-4-yl]amino]tetrahydropyran-4-carbonitrile] | 3.5 | 0.5 | – | – |
| OB1OCc2cc(Nc3ncc(F)c(NC4CCCC4)n3)ccc21 [Example C013] | – | – | 705 | 32.3 |
